# Where two headings read alike, the source gives them in different places.
# Legend:
# [1] = cited from earlier work
# [2] = cited from earlier work; for Kel / T1/2el: arithmetic mean; for AUCT / Cmax: geometric mean
# [3] = cited from earlier work; for Kel / T1/2el: arithmetic mean; for AUCT / Cmax: geometric mean; remark: listed apart in the source
# [4] = clinical; settings: human, plasma, oral
# [5] = for AUCT/∞ / Kel / T1/2el: mean
# [6] = cited from earlier work; remark: listed apart in the source
# [7] = colchicine coadministered with clarithromycin
# [8] = colchicine coadministered with cyclosporine
# [9] = colchicine coadministered with diltiazem ER
# [10] = colchicine coadministered with ketoconazole
# [11] = colchicine coadministered with ritonavir
# [12] = colchicine coadministered with verapamil ER
# [13] = Treatment-1: colchicine 0.6 mg alone (day 1, fasted), cyclosporine study
# [14] = Treatment-2: colchicine 0.6 mg + cyclosporine 100 mg once (day 15)
# [15] = Treatment-1: colchicine 0.6 mg alone (day 1, fasted), clarithromycin study
# [16] = Treatment-2: colchicine 0.6 mg + clarithromycin 250 mg twice daily (days 22-29)
# [17] = of 12 subjects, colchicine + propafenone
# [18] = of 12 subjects, propafenone study
# [19] = Treatment-1 (day 1): colchicine 0.6 mg alone, fasted, cimetidine study
# [20] = Treatment-2 (day 9): colchicine 0.6 mg + cimetidine 800 mg after double dose day 4, once daily days 5-8, fasted
smiles,measurement,setting,value
"COc1cc2c(c(OC)c1OC)-c1ccc(OC)c(=O)cc1[C@@H](NC(C)=O)CC2 [Colchicine, (S)N-(5,6,7,9-tetrahydro-1,2,3,10-tetramethoxy-9-oxobenzo[alpha]heptalen-7-yl)acetamide]",Number of 24 subjects with adverse events overall,[1]; [7],14
same,Percent of 24 subjects with adverse events overall,[1]; [7],(58.3) %
same,Total number of adverse events,[1]; [7],26
same,Number of 24 subjects with adverse events overall,[1]; [8],6
same,Percent of 24 subjects with adverse events overall,[1]; [8],(25.0%)
same,Total number of adverse events,[1]; [8],5
same,Number of 24 subjects with adverse events overall,[1]; [9],14
same,Percent of 24 subjects with adverse events overall,[1]; [9],(58.3) %
same,Total number of adverse events,[1]; [9],21
same,Number of 24 subjects with adverse events overall,[1]; [10],10
same,Percent of 24 subjects with adverse events overall,[1]; [10],(41.7) %
same,Total number of adverse events,[1]; [10],11
same,Number of 24 subjects with adverse events overall,[1]; [11],5
same,Percent of 24 subjects with adverse events overall,[1]; [11],(20.8) %
same,Total number of adverse events,[1]; [11],8
same,Number of 24 subjects with adverse events overall,[1]; [12],14
same,Percent of 24 subjects with adverse events overall,[1]; [12],(58.3) %
same,Total number of adverse events,[1]; [12],22
same,Kel,[2]; [13],0.147 h⁻¹
same,T1/2el,[2]; [13],6.777 h
same,CLTOT/F,[2]; [13],48.24 L/h
same,AUCT,[2]; [13],"12,555 pg · h/mL"
same,Cmax,[2]; [13],"2,720 pg/mL"
same,Kel,[2]; [14],0.038 h⁻¹
same,T1/2el,[2]; [14],20.65 h
same,CLTOT/F,[2]; [14],13.42 L/h
same,AUCT,[2]; [14],"29,830 pg · h/mL"
same,Cmax,[2]; [14],"8,820 pg/mL"
same,Kel,[3]; [15],0.1324 h⁻¹
same,T1/2el,[3]; [15],8.89 h
same,CLTOT/F,[3]; [15],46.8 L/h
same,AUCT,[3]; [15],"12,370 pg · h/mL"
same,Cmax,[3]; [15],"2,840 pg/mL"
same,Kel,[3]; [16],0.0296 h⁻¹
same,T1/2el,[3]; [16],30.31 h
same,CLTOT/F,[3]; [16],12.0 L/h
same,AUCT,[3]; [16],"41,950 pg · h/mL"
same,Cmax,[3]; [16],"8,440 pg/mL"
same,AUC(0-t),"[4]; both, AUCT, Treatment-2 (day 9): colchicine 0.6 mg + cimetidine 800 mg after double dose day 4, once daily days 5-8, fasted, mean",18.1 ng·h/mL
same,CL/F,[4]; 0.6 mg,465 mL/min
same,Tmax,[4]; 0.6 mg,1.25 h
same,Vd/F,[4]; 0.6 mg,1410 L
same,AUC(0-t),"[4]; 0.6 mg, AUCT GEOMETRIC LSMEANS, Treatment-1: colchicine 0.6 mg alone, cimetidine study",19.3 ng·h/mL
same,AUC(0-t),"[4]; 0.6 mg, AUCT, Treatment-1 (day 1): colchicine 0.6 mg alone, fasted, cimetidine study, mean",20.4 ng·h/mL
same,AUC(0-inf),"[4]; 0.6 mg, AUC∞ GEOMETRIC LSMEANS, Treatment-1: colchicine 0.6 mg alone, cimetidine study",22.6 ng·h/mL
same,AUC(0-inf),"[4]; 0.6 mg, AUC∞, Treatment-1 (day 1): colchicine 0.6 mg alone, fasted, cimetidine study, mean",24 ng·h/mL
same,Cmax,"[4]; 0.6 mg, Cmax GEOMETRIC LSMEANS, Treatment-1: colchicine 0.6 mg alone, cimetidine study",2.78 ng/mL
same,Cmax,"[4]; 0.6 mg, Cmax, Treatment-1 (day 1): colchicine 0.6 mg alone, fasted, cimetidine study, mean",3 ng/mL
same,AUC(0-t),"[4]; AUCT GEOMETRIC LSMEANS, Treatment-2: colchicine 0.6 mg + cimetidine",16.7 ng·h/mL
same,AUC(0-inf),"[4]; AUC∞ GEOMETRIC LSMEANS, Treatment-2: colchicine 0.6 mg + cimetidine",19.3 ng·h/mL
same,AUC(0-inf),"[4]; AUC∞, Treatment-2 (day 9): colchicine 0.6 mg + cimetidine 800 mg after double dose day 4, once daily days 5-8, fasted, mean",21 ng·h/mL
same,Cmax,"[4]; Cmax GEOMETRIC LSMEANS, Treatment-2: colchicine 0.6 mg + cimetidine",1.88 ng/mL
same,Cmax,"[4]; Cmax, Treatment-2 (day 9): colchicine 0.6 mg + cimetidine 800 mg after double dose day 4, once daily days 5-8, fasted, mean",2.11 ng/mL
same,Total number of adverse events after Treatment-2,colchicine + propafenone,1
same,Number of subjects experiencing adverse events after Treatment-2,[17],1
same,Percent of subjects experiencing adverse events after Treatment-2,[17],8.3%
same,Number of subjects experiencing adverse events after Treatment-1,[18],9
same,Percent of subjects experiencing adverse events after Treatment-1,[18],75.0%
same,Number of adverse events requiring medication after Treatment-1,propafenone study,None
same,Number of serious adverse events or deaths,propafenone study,None
same,Total number of adverse events after Treatment-1,propafenone study,19
same,AUCT/∞,[5]; [19],85.29%
same,Kel,[5]; [19],0.0201 h⁻¹
same,T1/2el,[5]; [19],35.46 h
same,AUCT/∞,[5]; [20],86.53%
same,Kel,[5]; [20],0.0222 h⁻¹
same,T1/2el,[5]; [20],31.54 h
same,Decrease of colchicine Cmax,[5]; coadministration with cimetidine vs colchicine alone,33%
same,Decrease of colchicine AUC,"[5]; coadministration with cimetidine vs colchicine alone, not significant",15%
same,Colchicine passing unchanged in the urine,[6]; in vivo,up to 20%
same,Time to peak concentrations in the blood,"[6]; oral, patients with normal organ function",≤ 2 h
